The record followed here is PubChem BioAssay (NCI).

Common to all, as to assay: DTP human tumour cell line panel, 48 h
Test [1] has as its system NCI-H226 lung.
Test [2] has as its system OVCAR-8 ovarian.
For test [3], the system named is NCI-H522 lung.
In test [4] the test system is CCRF-CEM leukemia.
For test [5], the system named is SF-295 CNS.
Test [6] deals with MALME-3M melanoma.
In test [7] the test system is NCI/ADR-RES ovarian.
Test [8] relates to HOP-62 NSCLC.
Test [9] concerns RPMI-8226 leukemia.
For test [10], the system named is NCI-H23 lung.

The structures appear in SMILES notation.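 Cells were grown in 96-well plates and exposed to each compound for 48 hours at five concentrations; endpoints were interpolated linearly between bracketing concentrations, or set to the highest concentration if not reached. Abbreviation: GI50, concentration required for 50% inhibition of growth. Definition used: TGI = concentration required for complete inhibition of growth.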 Where only a bound is given, the exact number is not on record here.

Consider `COc1ccc(-c2cc(/C=C3\C(=O)Nc4ccc(Cl)cc43)[nH]n2)cc1`, for which the GI50 is 12.1 µM in test [1]; 6.59 µM in test [2]; 2.03 µM in [3]; 3.32 µM in test [4]; 3.29 µM in [5]; 6.85 µM in [6]. Further, the GI50 in test [7] is 3.85 µM; in test [8], 4.39 µM; in [9] it was 4.04 µM; in test [10], 3.73 µM. Besides, the TGI was found to be 28.1 µM in test [1]; 20 µM in [2]; 5.67 µM in test [3]; 16.6 µM in test [4]; 12.8 µM in [5]; 20 µM in test [6]. The TGI in [7] turned out to be 17.7 µM; in test [8], 15.8 µM; in test [9] it was 18 µM; in [10] it was 16.3 µM.
`C=C1C(=O)O[C@H]2[C@H]1CC/C(COC(=O)NCc1ccc(Cn3c(=O)sn(CCCCl)c3=O)cc1)=C\CC[C@@]1(C)O[C@@H]21`: the GI50 in [1] was 16.6 µM; in test [2], 2.32 µM; in test [3], 0.538 µM; in test [4], 0.577 µM; in [5] it was 17.7 µM; in [6] it was 1.34 µM. In addition, the GI50 in test [7] is 26.9 µM; in test [8], 13.9 µM; in test [9], 0.764 µM; in test [10] it was 2.33 µM. For the same compound, the total growth inhibition concentration (TGI) in [1] came to 42.6 µM; in test [2] it was 5.42 µM; in test [3] it was 1.94 µM; in [4], 4.03 µM; in test [5] it was 31.7 µM; in test [6], 3.05 µM. Moreover, the TGI was more than 100 µM in test [7], 27.5 µM in [8], 3.1 µM in [9] and 5.36 µM in [10].
In the case of `COc1ccc(/C=C/c2nc(NCCCN(C)C)c3ccccc3n2)cc1`, the GI50 was 12 µM in test [1]; 4.75 µM in test [2]; 1.83 µM in test [3]; 2.02 µM in [4]; 5.15 µM in test [5]; 1.62 µM in [6]. The GI50 in test [7] was more than 100 µM; in test [8], 5.16 µM; in [9] it was 1.78 µM; in [10], 5.43 µM. Also, the TGI in [1] is 30.7 µM; in test [2] it was 18.7 µM; in test [3], 3.66 µM; in test [4], 4.53 µM; in test [5], 11 µM; in [6] it was 3.18 µM. Moreover, the TGI in [7] is more than 100 µM; in test [8] it was 9.74 µM; in test [9] it was 4.64 µM; in test [10], 11.5 µM.
For the compound `COCCOC(=O)NC(=O)Nc1ccc(/C(=N/O)c2ccc(Cl)cc2)cc1`, the GI50 is 1.14 µM in test [1]; 0.188 µM in test [2]; 0.123 µM in [3]; 0.0989 µM in test [4]; 0.123 µM in [5]; 11.9 µM in test [6]. The GI50 in [8] was 0.127 µM; in test [9], 0.129 µM; in test [10], 0.221 µM. Moreover, the concentration for total growth inhibition (TGI) turned out to be 39.4 µM in test [1]; 34.7 µM in test [2]; 5.58 µM in test [3]; 28.1 µM in [4]; 0.559 µM in test [5]; 33.1 µM in [6]. The TGI in test [7] was 7.31 µM; in [8] it was 41.2 µM; in [9], 19 µM; in test [10], 51.4 µM.
As for `CN1CCCN(C)C1c1cc([N+](=O)[O-])ccc1O`, the TGI in test [1] was 82.5 µM; in [2], more than 100 µM; in test [3] it was more than 100 µM; in test [4], 48.5 µM; in test [5] it was more than 100 µM; in [6] it was 63.7 µM. Besides, the TGI in [7], in test [8], in [9] and in test [10] was more than 100 µM in each case.
As for `CC(C)(C)NCc1cc(C(C)(C)C)cc(-c2ccc(Cl)cc2)c1O`, the TGI worked out at 24.8 µM in [3]; 36.6 µM in test [5]; 27.8 µM in test [6]; 32.4 µM in test [7]; 20.1 µM in test [8]; 40.5 µM in test [9]. This compound registered a TGI in test [10] of 29.4 µM.
Turning to `CCCCCCCCCCN(CCCCCCCCCC)CC(=O)c1ccc2cc(Br)c3ccccc3c2c1`, the GI50 in test [1] was 1.77 µM; in test [2], 2.09 µM; in test [3], 1.56 µM; in [4], 2.36 µM; in test [5], 1.75 µM; in [6] it was 1.71 µM. The GI50 in [7] is 1.79 µM; in test [8] it was 1.63 µM; in [9], 2.27 µM; in test [10], 1.78 µM. Besides, the TGI is 3.47 µM in [1]; 4.31 µM in [2]; 3.27 µM in test [3]; 6.96 µM in [4]; 3.53 µM in test [5]; 3.57 µM in test [6]. For the same compound, the TGI in test [7] was found to be 3.52 µM; in [8] it was 3.4 µM; in [9], 4.88 µM; in test [10] it was 3.4 µM.
`O=C(Nc1ccc(F)cc1)c1c(NC(=O)C(F)(F)F)sc2c1CCCCC2`: the GI50 in [1] was 1.76 µM; in [2], 2.8 µM; in test [3] it was 1.33 µM; in test [4] it was 1.5 µM; in test [5] it was 1.01 µM; in [6], 1.81 µM. Moreover, the GI50 in test [7] is 2.01 µM; in test [8], 2.26 µM; in test [9] it was 0.917 µM; in test [10] it was 2 µM. For the same compound, the total growth inhibition concentration (TGI) was 5.46 µM in test [1]; more than 100 µM in test [2]; 7.41 µM in test [3]; 15.1 µM in test [4]; 3.26 µM in [5]; 5.72 µM in test [6]. For the same compound, the TGI in [7] stood at 7.82 µM; in [8] it was 6.48 µM; in [9], 4.14 µM; in test [10], 8.82 µM.
With `O=c1[nH]c(=O)n(C2OC(CO)C(O)C2O)c2c1CCCC2` (stereo unspecified), the TGI in [1], in test [2], in test [3], in [4], in test [5] and in test [6] was more than 100 µM in each case. Moreover, the TGI in [7], in test [8], in [9] and in [10] was more than 100 µM in each case.
